Assay results taken from patent US7608249B2, “Enhanced substrate imaging by reversible binding to a paramagnetic complex” (Bracco Imaging S.p.A., priority 2001, dated 2009).

Columns and labels:
[1] = Affinity of paramagnetic complex towards substrate by PRE method; type: binding
Excerpt: (§1) Since the relaxivity of the two paramagnetic species involved in the equilibrium, that bound to the substrate molecule and that unbound, are different, the well-established Proton Relaxation Enhancement (PRE) method (Aime S, Fasano M, Terreno E, Botta M in The Chemistry of Contrast Agents in Medical Magnetic Resonance Imaging, Merbach A E, Tóth E (eds), Wiley & Sons: Chichester, 2001, 203-209) may be conveniently used for estimating the affinity of the paramagnetic complex towards the substrate molecule.
(§2) The KA values obtained for the adducts disclosed in the following are measured according to this PRE method.

[2] = Affinity of paramagnetic complex towards substrate by Proton Relaxation Enhancement (PRE) method; type: binding; conditions: Lactate; pH 7 and 25° C.
Excerpt: as §1, §2
By adding lactate to an aqueous solution of GdDO3A the following equilibrium takes place: GdDO3A(H2O)2+Lactate ? GdDO3A(Lactate)+2H2O
Since the relaxivity of the two Gd(III) species involved in the equilibrium are different (higher for GdDO3A(H2O)2), the well-consolidated Proton Relaxation Enhancement (PRE) method (Aime S, Fasano M, Terreno E, Botta M in The Chemistry of Contrast Agents in Medical Magnetic Resonance Imaging, Merbach A E, Tóth E (eds), Wiley & Sons: Chichester, 2001, 203-209) may be conveniently used for estimating the affinity of the GdDO3A complex towards Lactate.

Row | Molecule | KA ([1]; aspartate, 298 K and pH 7) | KA ([1]; oxalate, 298K and pH 7) | KA [2] | KA ([1]; citrate, pH 7 and 25° C.) | binding strength ([1]; inorganic phosphate, pH 7.4 and 25° C.)
1 | 10-[(3-carboxyphenyl)methyl]-1,4,7,10-tetraazaciclododecane-1,4,7-triacetic acid gadolinium complex [Gd-3] | 120 M⁻¹ | > 50000 M⁻¹ | – | – | –
2 | O=C([O-])CN1CCNCCN(CC(=O)[O-])CCN(CC(=O)[O-])CC1.[Gd+3] [GdDO3A] | – | – | 150 M⁻¹ | 40 M⁻¹ | 50 M⁻¹
